Patent US20240366624A1, “METHODS AND COMPOSITIONS FOR TREATING THROMBOTIC DISEASE” (Washington University, priority 2023, published 2024)
Where two headings read alike, the source gives them in different places.

How the values were obtained:
WT mouse platelets = assay: Platelet aggregation, WT mouse platelets; assay type: cell-based
Experimental: FIG. 9(A-C) is an exemplary embodiment of EN460 inhibiting thrombin-induced aggregation of mouse and human platelets in accordance with the present disclosure. (A) Human (FIG. 9A), WT (FIG. 9B), and Ero1α-null (FIG. 9C) platelets were pretreated with EN460, an ERO1α inhibitor, at 1, 3, or 10 μM, and treated with 0.025 U/ml thrombin to induce platelet aggregation. The data represent the mean±SD (n=3). P values determined by ANOVA and Dunnett's test (FIG. 9(A-B)) or Student's t-test (FIG. 9C).
FIG. 10(A-E) is an exemplary embodiment of 15E9 not affecting platelet activation and aggregation in accordance with the present disclosure. […] P values determined by unpaired Student's t-test (vs. mIgG1).
FIG. 18(A-R) is an exemplary embodiment of novel small-molecule inhibitors recapitulating the defect in Ero1α (endoplasmic reticulum oxidoreductase 1a)-null platelets in accordance with the present disclosure. […] After incubation with a different concentration of B12-5, the specific interaction between B12-5 and ERO1α was measured by subtracting the nonspecific binding. The KD value was calculated from the Kon and Koff values. […] P values determined by ANOVA and Dunnett test (FIG. 18(B-E), FIG. 18(1-L), and FIG. 18(O-R) [for B12-5]) or Student t test (FIG. 18M, FIG. 18N, and FIG. 18(O-R) [for BAPTA (1,2-bis(o-aminophenoxy)ethane-N,N,N′,N′-tetraacetic acid)]).

ERO1α [1] = target: T1, ERO1α (Homo sapiens, UniProt Q96HE7); conditions: from studies; cited from earlier work
T1 sequence (Q96HE7 24-468): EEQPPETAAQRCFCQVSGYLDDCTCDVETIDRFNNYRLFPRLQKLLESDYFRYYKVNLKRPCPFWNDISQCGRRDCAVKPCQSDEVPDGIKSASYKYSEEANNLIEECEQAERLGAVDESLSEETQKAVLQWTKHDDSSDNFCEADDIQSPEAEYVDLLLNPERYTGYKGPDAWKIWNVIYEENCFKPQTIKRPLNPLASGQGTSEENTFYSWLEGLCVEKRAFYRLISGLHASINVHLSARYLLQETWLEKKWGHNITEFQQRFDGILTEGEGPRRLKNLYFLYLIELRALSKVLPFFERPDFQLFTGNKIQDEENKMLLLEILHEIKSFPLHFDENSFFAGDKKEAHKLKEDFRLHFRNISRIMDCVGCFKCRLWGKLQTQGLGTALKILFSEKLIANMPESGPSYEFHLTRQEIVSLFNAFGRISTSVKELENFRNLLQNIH

[2] = from studies; cited from earlier work
ERO1α [3] = target: T1, ERO1α; assay: ERO1α activity assay; assay type: biochemical
Excerpt: FIG. 17(A-F) is an exemplary embodiment of identification of novel ERO1α inhibitors by high throughput screening in accordance with the present disclosure. FIG. 17A: A scheme of an ERO1α activity assay. FIG. 17B: Screening of chemical libraries in the ERO1α activity assay. FIG. 17C: The inhibitory effect of selected compounds on ERO1α activity. FIG. 17D: The inhibitory effect of selected compounds on PDI activity. FIG. 17E: The inhibitory effect of selected compounds on H2O2 activity. FIG. 17F: The inhibitory effect of selected compounds on thiol-reacting activity. The data represent the mean±SD (n=3). *P<0.05, **P<0.01, ***P<0.001, and ****P<0.0001 vs. vehicle control, Student's t-test.
To identify a novel ERO1α inhibitor, 5800 compounds were screened using an ERO1α activity assay (FIG. 17A and FIG. 17B). […] The selected compounds were further tested in assays measuring PDI, antioxidant, and thiol-reacting activities (FIG. 17D through FIG. 17F). […] B12 inhibited P-selectin exposure and αIIbβ3 activation in agonist-activated mouse and human platelets in a concentration-dependent manner (FIG. 18B through FIG. 18E).

| SMILES | thrombin-induced aggregation (WT mouse platelets; 3 to 10 μM, mouse platelets) | IC50 (ERO1α [1]) [µM] | thiol-reacting activity [2] | IC50 (ERO1α [3]; read-out: IC50, ERO1α activity) [µM] | IC50 (ERO1α [3]; read-out: IC50, ERO1α inhibitor) [µM] | thrombin- or CRP-induced WT platelet aggregation (WT mouse platelets; 10 μM) |
| --- | --- | --- | --- | --- | --- | --- |
| O=C(O)c1cc(N2N=C(C(F)(F)F)/C(=C/c3ccc(-c4ccccc4)o3)C2=O)ccc1Cl [EN460] | abrogated | 1.9 | has thiol-reacting activity | – | – | – |
| O=C(CSc1nc(O)cc(O)n1)N1c2ccccc2Sc2ccccc21 [B12-5] | – | – | – | 7.9 | 7.9 | significantly mitigated |
